Data reported in ChEMBL document CHEMBL1201862, “PubChem BioAssay data set” (2004).
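Tested at 5 concentrations; 48 h exposure; 96-well plates; endpoints linearly interpolated, else capped at highest concentration. GI50 is the concentration that inhibits growth by half.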 The source made the active and inactive calls. Cut-off read from the data, not from the text of the source: active = GI50 up to about 1.1 µM and inactive = higher.

What was measured:
Assay in all cases: DTP human tumour cell line panel, 48 h
SN12C = tested on: SN12C
A549 = tested on: A549
MDA-MB-435 = tested on: MDA-MB-435
HCT-116 = tested on: HCT-116
U-251 = tested on: U-251
Malme-3M = tested on: Malme-3M
PC-3 = tested on: PC-3
HOP-92 = tested on: HOP-92
NCI-H522 = tested on: NCI-H522
OVCAR-3 = tested on: OVCAR-3
SNB-75 = tested on: SNB-75
NCI-H460 = tested on: NCI-H460
786-0 = tested on: 786-0
M14 = tested on: M14
BT-549 = tested on: BT-549
SW-620 = tested on: SW-620
MDA-N = tested on: MDA-N
K562 = tested on: K562
RXF 393 = tested on: RXF 393

| SMILES | GI50 (SN12C) | GI50 (A549) | GI50 (MDA-MB-435) | GI50 (HCT-116) | GI50 (U-251) | GI50 (Malme-3M) | GI50 (PC-3) | GI50 (HOP-92) | GI50 (NCI-H522) | GI50 (OVCAR-3) | GI50 (SNB-75) | GI50 (NCI-H460) | GI50 (786-0) | GI50 (M14) | GI50 (BT-549) | GI50 (SW-620) | GI50 (MDA-N) | GI50 (K562) | GI50 (RXF 393) |
| --- | --- | --- | --- | --- | --- | --- | --- | --- | --- | --- | --- | --- | --- | --- | --- | --- | --- | --- | --- |
| O=c1ssc(Cl)c1Cl | > 10 µM (inactive) | > 10 µM (inactive) | > 10 µM (inactive) | > 5.98 µM (inactive) | > 10 µM (inactive) | > 6.11 µM (inactive) | > 10 µM (inactive) | > 10 µM (inactive) | 4.05 µM (inactive) | > 10 µM (inactive) | > 10 µM (inactive) | > 10 µM (inactive) | > 4.7 µM (inactive) | > 10 µM (inactive) | > 10 µM (inactive) | 3.55 µM (inactive) | > 10 µM (inactive) | 3.23 µM (inactive) | > 10 µM (inactive) |
| O=C1c2cccc3cc4ccccc4c(c23)C(=O)N1CCCNCCNCCCN1C(=O)c2cccc3cc4ccccc4c(c23)C1=O | < 0.01 µM (active) | 0.0133 µM (active) | 0.0421 µM (active) | < 0.0191 µM (active) | 0.0264 µM (active) | 0.211 µM (active) | 0.152 µM (active) | 1 µM (active) | < 0.01 µM (active) | 0.353 µM (active) | 0.0263 µM (active) | < 0.01 µM (active) | 0.02 µM (active) | 0.177 µM (active) | 1.24 µM (inactive) | < 0.01 µM (active) | 0.0546 µM (active) | < 0.01 µM (active) | 0.179 µM (active) |
| O=c1[nH]nc(Cc2ccc(Cl)cc2)n1/N=C/c1ccc([N+](=O)[O-])o1 | 3.78 µM (inactive) | 3.42 µM (inactive) | 2.4 µM (inactive) | 1.29 µM (inactive) | 4.12 µM (inactive) | 1.46 µM (inactive) | 3.08 µM (inactive) | 4.57 µM (inactive) | 1 µM (active) | 0.53 µM (active) | 7.13 µM (inactive) | 3.4 µM (inactive) | 2.23 µM (inactive) | 2.17 µM (inactive) | 1.87 µM (inactive) | 2.92 µM (inactive) | 1.65 µM (inactive) | 2.58 µM (inactive) | 1.56 µM (inactive) |
| O=C1c2ccccc2-c2c1c1ccccc1c(=O)n2-c1cccnc1 | > 52.2 µM (inactive) | 11.5 µM (inactive) | > 100 µM (inactive) | 27.3 µM (inactive) | 22.7 µM (inactive) | > 95.3 µM (inactive) | > 54.3 µM (inactive) | 8.17 µM (inactive) | 10.5 µM (inactive) | > 71.3 µM (inactive) | 49.1 µM (inactive) | 6.24 µM (inactive) | 9.91 µM (inactive) | > 100 µM (inactive) | 34.8 µM (inactive) | 20.2 µM (inactive) | > 100 µM (inactive) | > 60.3 µM (inactive) | > 100 µM (inactive) |
| CCOC(=O)Nc1cc2ccccc2c(/N=N/c2ccccc2)c1O | > 100 µM (inactive) | > 100 µM (inactive) | > 100 µM (inactive) | > 100 µM (inactive) | 26.5 µM (inactive) | 55.6 µM (inactive) | > 100 µM (inactive) | 88.7 µM (inactive) | 29.6 µM (inactive) | > 100 µM (inactive) | 31 µM (inactive) | > 100 µM (inactive) | 34.8 µM (inactive) | > 100 µM (inactive) | > 100 µM (inactive) | > 100 µM (inactive) | > 100 µM (inactive) | > 100 µM (inactive) | 20.7 µM (inactive) |
